Ends that are not written are not given here.
Columns and labels:
[1] = tested on: glioma and neuroblastoma cell cultures; conditions: cited from earlier work
[2] = tested on: normal rodent muscle tissue, subcutaneous connective tissue, and dermis; conditions: cited from earlier work
[3] = tested on: human and non-human origin tumors, including mammary carcinoma, skin carcinoma and papilloma, colon carcinoma, glioma of brain; conditions: variety of human and non-human origin tumors in rodent models; cited from earlier work
[4] = tested on: muscle tissue, subcutaneous connective tissue, and dermis; format: in vivo, rat; conditions: for effect on tissue at sites of injection (histopathology): normal rats, skin, subcutaneous and skeletal muscle injection, in saline, 0.1–1 mg/mL, sacrificed at 24 hours
Procedure: Four normal rats were injected in the skin and subcutaneously, each in four different foci, and in extremity skeletal muscle, each in two different foci, with NTP peptide #7 in saline in quantities of […] at concentrations of 0.1–1 mg/mL delivered from plastic syringes through stainless steel 26 gauge needles.
The individual foci of infiltration were excised, fixed in 10% formalin, embedded in paraffin, and stained and examined by standard histopathological methods.
The controls received saline alone.
Rats were injected in the skin and subcutaneously as in Example 1 above, except they were injected with NTP peptide #14.
Tissues were excised, fixed in 10% formalin, embedded in paraffin, and stained and examined by standard histopathological methods.
The controls were the same as Example 1.

[5] = tested on: prostate; experiment: Intraprostatic infusion in rats, histology of prostate gland; format: in vivo, rat; conditions: 300 μl of 1 mg/mL in PBS pH 7.4 (1.0 mg/kg), sacrificed after 72 hours
Procedure: Four rats were anesthetized with ether and given NTP peptide #7 by intraprostatic infusion. The injections consisted of 300 μl of NTP peptide #7 1 mg/mL in PBS pH 7.4. (1.0 mg/kg). Controls received injections of PBS alone or no injection. Rats were painlessly sacrificed after 72 hours. Prostate glands were dissected, fixed in 10% buffered formalin for 24 hours, embedded in paraffin, sectioned, and stained with H & E. For each animal the entire prostate gland was embedded and sectioned. All stained sections were examined histologically.
Normal rats were injected in the prostate as in the above Example 2, except they were injected with NTP peptide #17. Rats were painlessly sacrificed after 72 hours and their prostate glands were examined as in Example 2.

Row | Substance | effect on tissue at sites of injection (histopathology) [4] | effect on prostate tissue at sites of injection (histology) [5] | other results
1 | AD7c-NTP protein: ˜41 kD membrane associated phosphoprotein, a neural thread protein; sequence in FIG. 1 | – | – | causing cell death in vitro [1]: effective agent for causing cell death; causing cell death in vivo in normal tissue [2]: effective agent for causing cell death; causing cell death in vivo in tumors [3]: effective agent for causing cell death
2 | LSLPSSWDYG [NTP peptide #7] | necrosis of tissue at the injection sites | necrosis of tissue at the injection sites with loss of glandular epithelium, flattening and atrophy | spread of necrosis beyond the site of injection ([4]; rat, in vivo, sc): did not appear to spread far beyond the site of injection
3 | PASASPVAGITGM [NTP peptide #17, …; AD7c-NTP p31–43] | – | significant cell loss and atrophy in the prostate | –
4 | WDYRRFIFNFL [NTP peptide #14, …; AD7c-NTP p241–245 + AD7c-NTP p197–202] | cell death and necrosis of tissue at the injection sites | – | –

From patent US7192929B2, “Peptides effective in the treatment of tumors and other conditions requiring the removal or destruction of cells” (Nymox Corporation, priority 2001, dated 2007)
